Source: PubChem BioAssay (NCI)
“And” between values parts separate entries of the source, which are not always exact repeats. Identical values can stand only once.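 Each compound was tested at five concentrations against cells in 96-well plates for 48 hours. At the GI50, growth is halved. Definition used: TGI = concentration required for complete inhibition of growth.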

tested on: SF-268 CNS; experiment: NCI anticancer screen, dose series, 48 h

Row | Compound | TGI | GI50
1 | O=C1[C@@H]2C(c3c(Cl)cccc3Cl)=NO[C@@H]2C(=O)N1c1ccc(Cc2ccc(N3C(=O)[C@H]4C(c5c(Cl)cccc5Cl)=NO[C@H]4C3=O)cc2)cc1 | > 100 µM | 
2 | COC1N(C2CC(O)C(CO)O2)C(=O)NC(=O)C1(F)Br (configuration not stated) | 50 µM and > 100 µM | 18.2 µM
3 | COC(=O)C1C(C(=O)OC)C2C(=O)C3C(C(=O)OC)C(C(=O)OC)C3C(=O)C12 (configuration not stated) | > 100 µM | 
4 | O=C(NC12CC3CCC1CC(C3)C2)[C@@H]1CCCN1C(=O)OCc1ccccc1 (some centres not stated) | > 100 µM | 
5 | O=[N+]([O-])c1cccc(C2=NN(c3ccccc3)C3c4cc(Br)ccc4OCC23)c1 (configuration not stated) | > 100 µM | 
6 | C[C@]12Cc3cn[nH]c3C(=O)C1CC[C@@H]1C2CC[C@@]2(C)C1CC[C@@H]2O (some centres not stated) | > 100 µM | 
7 | NNC(=O)C(=O)N/N=C1/CCCC1C(=O)CCC(=O)Nc1ccc(Cl)cc1 (configuration not stated) | > 100 µM | 
8 | COC(=O)CCC(NC(=S)N/N=C/c1cccs1)C(=O)OC (configuration not stated) | > 100 µM | 
9 | O=c1/c(=C/c2ccccc2[N+](=O)[O-])sc2nnc(-c3cccnc3)n12 | > 100 µM | 
10 | COC(=O)/C=C(/C(=O)OC)C1(C)c2cc(C(=O)OC)c(C(=O)OC)c(N)c2C(=N)N1c1ccccc1 (configuration not stated) | 41 µM | 
11 | O=C1/C(=C\c2ccccc2)CN(C(=O)CCN2CCCCC2)C/C1=C/c1ccccc1 | 4.51 µM | 
12 | Cc1ccc(S(=O)(=O)OCC/C(=C\[Si](C)(C)C)c2ccccc2)cc1 | > 100 µM | 
13 | CCc1ccccc1NC(=O)c1cccc([N+](=O)[O-])c1O | > 100 µM | 
14 | CC1=C(C(=O)Nc2ccccc2)C(c2ccc(N(C)C)cc2)C(C(=O)Nc2ccccc2)=C(C)N1 | > 71.6 µM | 

tested on: RXF 393 renal; experiment: NCI anticancer screen, dose series, 48 h

Row | Compound | TGI | GI50
15 | O=C1[C@@H]2C(c3c(Cl)cccc3Cl)=NO[C@@H]2C(=O)N1c1ccc(Cc2ccc(N3C(=O)[C@H]4C(c5c(Cl)cccc5Cl)=NO[C@H]4C3=O)cc2)cc1 | > 100 µM | 
16 | COC1N(C2CC(O)C(CO)O2)C(=O)NC(=O)C1(F)Br (configuration not stated) | 50 µM and > 100 µM | 37.2 µM
17 | COC(=O)C1C(C(=O)OC)C2C(=O)C3C(C(=O)OC)C(C(=O)OC)C3C(=O)C12 (configuration not stated) | > 100 µM | 
18 | O=C(NC12CC3CCC1CC(C3)C2)[C@@H]1CCCN1C(=O)OCc1ccccc1 (some centres not stated) | 54.6 µM | 
19 | O=[N+]([O-])c1cccc(C2=NN(c3ccccc3)C3c4cc(Br)ccc4OCC23)c1 (configuration not stated) | > 100 µM | 
20 | C[C@]12Cc3cn[nH]c3C(=O)C1CC[C@@H]1C2CC[C@@]2(C)C1CC[C@@H]2O (some centres not stated) | > 100 µM | 
21 | NNC(=O)C(=O)N/N=C1/CCCC1C(=O)CCC(=O)Nc1ccc(Cl)cc1 (configuration not stated) | > 100 µM | 
22 | COC(=O)CCC(NC(=S)N/N=C/c1cccs1)C(=O)OC (configuration not stated) | > 100 µM | 
23 | O=c1/c(=C/c2ccccc2[N+](=O)[O-])sc2nnc(-c3cccnc3)n12 | > 100 µM | 
24 | COC(=O)/C=C(/C(=O)OC)C1(C)c2cc(C(=O)OC)c(C(=O)OC)c(N)c2C(=N)N1c1ccccc1 (configuration not stated) | 36.1 µM | 
25 | O=C1/C(=C\c2ccccc2)CN(C(=O)CCN2CCCCC2)C/C1=C/c1ccccc1 | 3.53 µM | 
26 | Cc1ccc(S(=O)(=O)OCC/C(=C\[Si](C)(C)C)c2ccccc2)cc1 | > 100 µM | 
27 | CCc1ccccc1NC(=O)c1cccc([N+](=O)[O-])c1O | 45.1 µM | 
28 | CC1=C(C(=O)Nc2ccccc2)C(c2ccc(N(C)C)cc2)C(C(=O)Nc2ccccc2)=C(C)N1 | > 100 µM | 

tested on: A498 renal; experiment: NCI anticancer screen, dose series, 48 h

Row | Compound | TGI | GI50
29 | O=C1[C@@H]2C(c3c(Cl)cccc3Cl)=NO[C@@H]2C(=O)N1c1ccc(Cc2ccc(N3C(=O)[C@H]4C(c5c(Cl)cccc5Cl)=NO[C@H]4C3=O)cc2)cc1 | > 100 µM | 
30 | COC1N(C2CC(O)C(CO)O2)C(=O)NC(=O)C1(F)Br (configuration not stated) | 50 µM and > 65 µM | 0.821 µM
31 | COC(=O)C1C(C(=O)OC)C2C(=O)C3C(C(=O)OC)C(C(=O)OC)C3C(=O)C12 (configuration not stated) | > 100 µM | 
32 | O=C(NC12CC3CCC1CC(C3)C2)[C@@H]1CCCN1C(=O)OCc1ccccc1 (some centres not stated) | > 100 µM | 
33 | O=[N+]([O-])c1cccc(C2=NN(c3ccccc3)C3c4cc(Br)ccc4OCC23)c1 (configuration not stated) | > 100 µM | 
34 | C[C@]12Cc3cn[nH]c3C(=O)C1CC[C@@H]1C2CC[C@@]2(C)C1CC[C@@H]2O (some centres not stated) | > 100 µM | 
35 | NNC(=O)C(=O)N/N=C1/CCCC1C(=O)CCC(=O)Nc1ccc(Cl)cc1 (configuration not stated) | > 100 µM | 
36 | COC(=O)CCC(NC(=S)N/N=C/c1cccs1)C(=O)OC (configuration not stated) | > 100 µM | 
37 | O=c1/c(=C/c2ccccc2[N+](=O)[O-])sc2nnc(-c3cccnc3)n12 | > 100 µM | 
38 | COC(=O)/C=C(/C(=O)OC)C1(C)c2cc(C(=O)OC)c(C(=O)OC)c(N)c2C(=N)N1c1ccccc1 (configuration not stated) | 88.9 µM | 
39 | O=C1/C(=C\c2ccccc2)CN(C(=O)CCN2CCCCC2)C/C1=C/c1ccccc1 | 7.43 µM | 
40 | Cc1ccc(S(=O)(=O)OCC/C(=C\[Si](C)(C)C)c2ccccc2)cc1 | > 100 µM | 
41 | CCc1ccccc1NC(=O)c1cccc([N+](=O)[O-])c1O | 88.2 µM | 
42 | CC1=C(C(=O)Nc2ccccc2)C(c2ccc(N(C)C)cc2)C(C(=O)Nc2ccccc2)=C(C)N1 | > 100 µM | 

tested on: M14 melanoma; experiment: NCI anticancer screen, dose series, 48 h

Row | Compound | TGI | GI50
43 | O=C1[C@@H]2C(c3c(Cl)cccc3Cl)=NO[C@@H]2C(=O)N1c1ccc(Cc2ccc(N3C(=O)[C@H]4C(c5c(Cl)cccc5Cl)=NO[C@H]4C3=O)cc2)cc1 | > 100 µM | 
44 | COC1N(C2CC(O)C(CO)O2)C(=O)NC(=O)C1(F)Br (configuration not stated) | 50 µM and > 100 µM | 38.4 µM
45 | O=C(NC12CC3CCC1CC(C3)C2)[C@@H]1CCCN1C(=O)OCc1ccccc1 (some centres not stated) | > 100 µM | 
46 | C[C@]12Cc3cn[nH]c3C(=O)C1CC[C@@H]1C2CC[C@@]2(C)C1CC[C@@H]2O (some centres not stated) | > 100 µM | 
47 | NNC(=O)C(=O)N/N=C1/CCCC1C(=O)CCC(=O)Nc1ccc(Cl)cc1 (configuration not stated) | > 100 µM | 
48 | COC(=O)CCC(NC(=S)N/N=C/c1cccs1)C(=O)OC (configuration not stated) | > 100 µM | 
49 | O=c1/c(=C/c2ccccc2[N+](=O)[O-])sc2nnc(-c3cccnc3)n12 | > 100 µM | 
50 | COC(=O)/C=C(/C(=O)OC)C1(C)c2cc(C(=O)OC)c(C(=O)OC)c(N)c2C(=N)N1c1ccccc1 (configuration not stated) | 33.6 µM | 
51 | O=C1/C(=C\c2ccccc2)CN(C(=O)CCN2CCCCC2)C/C1=C/c1ccccc1 | 4.66 µM | 
52 | Cc1ccc(S(=O)(=O)OCC/C(=C\[Si](C)(C)C)c2ccccc2)cc1 | > 100 µM | 
53 | CCc1ccccc1NC(=O)c1cccc([N+](=O)[O-])c1O | > 100 µM | 
54 | CC1=C(C(=O)Nc2ccccc2)C(c2ccc(N(C)C)cc2)C(C(=O)Nc2ccccc2)=C(C)N1 | > 56 µM | 

tested on: DMS 273 small cell lung; experiment: NCI anticancer screen, dose series, 48 h

Row | Compound | TGI
55 | O=C1[C@@H]2C(c3c(Cl)cccc3Cl)=NO[C@@H]2C(=O)N1c1ccc(Cc2ccc(N3C(=O)[C@H]4C(c5c(Cl)cccc5Cl)=NO[C@H]4C3=O)cc2)cc1 | > 100 µM
56 | COC1N(C2CC(O)C(CO)O2)C(=O)NC(=O)C1(F)Br (configuration not stated) | 50 µM
57 | COC(=O)C1C(C(=O)OC)C2C(=O)C3C(C(=O)OC)C(C(=O)OC)C3C(=O)C12 (configuration not stated) | > 100 µM
58 | O=C(NC12CC3CCC1CC(C3)C2)[C@@H]1CCCN1C(=O)OCc1ccccc1 (some centres not stated) | > 100 µM
59 | O=[N+]([O-])c1cccc(C2=NN(c3ccccc3)C3c4cc(Br)ccc4OCC23)c1 (configuration not stated) | > 100 µM
60 | C[C@]12Cc3cn[nH]c3C(=O)C1CC[C@@H]1C2CC[C@@]2(C)C1CC[C@@H]2O (some centres not stated) | > 100 µM
61 | NNC(=O)C(=O)N/N=C1/CCCC1C(=O)CCC(=O)Nc1ccc(Cl)cc1 (configuration not stated) | > 100 µM
62 | COC(=O)CCC(NC(=S)N/N=C/c1cccs1)C(=O)OC (configuration not stated) | > 100 µM
63 | O=c1/c(=C/c2ccccc2[N+](=O)[O-])sc2nnc(-c3cccnc3)n12 | > 100 µM
64 | COC(=O)/C=C(/C(=O)OC)C1(C)c2cc(C(=O)OC)c(C(=O)OC)c(N)c2C(=N)N1c1ccccc1 (configuration not stated) | > 100 µM
65 | O=C1/C(=C\c2ccccc2)CN(C(=O)CCN2CCCCC2)C/C1=C/c1ccccc1 | 3.1 µM
66 | Cc1ccc(S(=O)(=O)OCC/C(=C\[Si](C)(C)C)c2ccccc2)cc1 | > 100 µM
67 | CCc1ccccc1NC(=O)c1cccc([N+](=O)[O-])c1O | 86.2 µM
68 | CC1=C(C(=O)Nc2ccccc2)C(c2ccc(N(C)C)cc2)C(C(=O)Nc2ccccc2)=C(C)N1 | > 31.8 µM
